[αh] = substituted alpha-L-bicyclic nucleoside, publication subscript αh; [αj] = substituted alpha-L-bicyclic nucleoside, publication subscript αj; [αl] = substituted alpha-L-bicyclic nucleoside, publication subscript αl; [αm] = substituted alpha-L-bicyclic nucleoside, publication subscript αm; [αg] = code of the source, not defined here; d = 2'-deoxy (DNA)
Test: 12mer Tm study
Type: binding
Conditions: for Tm (° C.): all linkages phosphodiester; for ΔTm/mod (° C.): change in Tm per modification
Excerpt: All internucleoside linkages are phosphodiester and all nucleosides not followed by a subscript are 2′-deoxyribonucleosides. The nucleosides followed by a subscript are defined below.

Row | Substance | Tm (° C.) [°C] | ΔTm/mod (° C.)
1 | 07/438704: 12mer GCGTTUTTTGCT, all 2′-deoxyribonucleosides, all linkages phosphodiester (DNA, all phosphodiester, methylation of C not given here) [reference compound] | 46.7 | +0.0 °C
2 | 07/438711: 12mer GCGTTUαlTTTGCT, all linkages phosphodiester (GCGTTUTTTGCT; sugars from the 5' end d5 [αl]1 d6, all phosphodiester, methylation of C not given here) [reference compound] | 50.2 | +4.6 °C
3 | 07/449244: 12mer GCGTTUαjTTTGCT, all linkages phosphodiester (GCGTTUTTTGCT; sugars from the 5' end d5 [αj]1 d6, all phosphodiester, methylation of C not given here) | 46.7 | +1.1 °C
4 | 07/449245: 12mer GCGTTUαjTαjTTGCT, all linkages phosphodiester (GCGTTUTTTGCT; sugars from the 5' end d5 [αj]2 d5, all phosphodiester, methylation of C not given here) | 47.1 | +1.0 °C
5 | 07/449246: 12mer GCGTTUαhTTTGCT, all linkages phosphodiester (GCGTTUTTTGCT; sugars from the 5' end d5 [αh]1 d6, all phosphodiester, methylation of C not given here) | 49.0 | +3.4 °C
6 | 07/449247: 12mer GCGTTUαhTαhTTGCT, all linkages phosphodiester (GCGTTUTTTGCT; sugars from the 5' end d5 [αh]2 d5, all phosphodiester, methylation of C not given here) | 53.7 | +4.1 °C
7 | 07/454306: 12mer GCGTTUαlTαlTTGCT, all linkages phosphodiester (GCGTTUTTTGCT; sugars from the 5' end d5 [αl]2 d5, all phosphodiester, methylation of C not given here) [reference compound] | 45.6 | +4.6 °C
8 | 07/454307: 12mer GCGTTUαmTTTGCT, all linkages phosphodiester (GCGTTUTTTGCT; sugars from the 5' end d5 [αm]1 d6, all phosphodiester, methylation of C not given here) | 51.3 | +5.5 °C
9 | 07/454308: 12mer GCGTTUαmTαmTTGCT, all linkages phosphodiester (GCGTTUTTTGCT; sugars from the 5' end d5 [αm]2 d5, all phosphodiester, methylation of C not given here) | 55.2 | +4.8 °C
10 | 07/454309: 12mer GCGTTUαgTTTGCT, all linkages phosphodiester (GCGTTUTTTGCT; sugars from the 5' end d5 [αg]1 d6, all phosphodiester, methylation of C not given here) | 49.7 | +4.2 °C
11 | 07/454310: 12mer GCGTTUαgTαgTTGCT, all linkages phosphodiester (GCGTTUTTTGCT; sugars from the 5' end d5 [αg]2 d5, all phosphodiester, methylation of C not given here) | 53.6 | +4.2 °C

Reference: patent US8501805B2, “Substituted alpha-L-bicyclic nucleosides” (Isis Pharmaceuticals, Inc., priority 2008, dated 2013)
